# Values joined by “and” are separate entries in the source; they are usually repeats but may differ in a detail not shown here. Identical values can stand only once.
# How the values were obtained:
# 76I,369F-PfCRT^K1 [1] = target: T1, 76I,369F-PfCRT^K1 (Plasmodium falciparum, UniProt Q9N623, A220S/K76I/M74I/N326S/N75E/Q271E/R371I/V369F); assay: [3H]drug transport into Xenopus oocytes expressing PfCRT; format: cell-based
# Procedure: (§1) For each treatment, 10 oocytes were transferred to a 5 mL polystyrene round bottom tube (Falcon) and washed twice with 3.5 mL of ND96 buffer, with the residual buffer removed by pipette. […] The assay was terminated by removing the reaction buffer with a pipette and washing the oocytes twice with 3.5 mL of ice-cold ND96 buffer. Each oocyte was transferred to a separate well of a white 96-well plate (NUNC or PerkinElmer), incubated overnight at room temperature in 30 μL of 10% SDS, and mixed on an orbital shaker the following day for approximately 5 min. The lysed oocyte was then combined with 150 μL of MicroScint-40 microscintillant (PerkinElmer), the plate covered with a TopSeal-A (PerkinElmer), and the radioactivity measured with a PerkinElmer MicroBeta^2 microplate liquid scintillation analyzer.
# noninjected oocytes = assay: [3H]drug uptake into noninjected oocytes (background accumulation); format: cell-based, Xenopus laevis; conditions: for rate of CQ uptake: [3H]CQ […]
# Procedure: as §1
# 76I-PfCRT^K1 [2] = target: T2, 76I-PfCRT^K1 (Plasmodium falciparum, UniProt Q9N623, A220S/K76I/M74I/N326S/N75E/Q271E/R371I); format: cell-based
# Procedure: as §1
# [3] = system: P. falciparum line 106/1^76I,352R; conditions: 106/1^76I,352R (76I,352R-PfCRT^K1); IC50 in line divided by IC50 in drug-sensitive reference strain; cited from earlier work
# PfCRT^K1 = assay: [3H]drug transport into Xenopus oocytes expressing PfCRT; format: cell-based, Plasmodium falciparum
# Procedure: as §1
# C4^Dd2 (PfCRT^Dd2) = assay: P. falciparum H+ efflux assay (DV alkalinization rate); format: cell-based, Plasmodium falciparum
# Procedure: (§2) Saponin-isolated trophozoite-stage parasites containing the membrane-impermeant pH-sensitive fluorescent indicator fluorescein-dextran (10,000 MW; Life Technologies) in their DVs were prepared as outlined elsewhere. The isolated parasites were washed and suspended in a saline solution (125 mM NaCl, 5 mM KCl, 1 mM MgCl2, 20 mM glucose, 25 mM HEPES; pH 7.1) at a density of 1–3 × 10^7 cells/mL. The fluorometry experiments were performed as described previously. The pH of the DV was monitored at 37°C using a PerkinElmer Life Sciences LS50B fluorometer with a dual excitation Fast Filter accessory (excitation 490 and 450 nm; emission 520 nm). The experiments entailed monitoring the alkalinization of the DV upon addition of the V-type H^+-ATPase inhibitor concanamycin A (100 nM; Sigma-Aldrich), in the presence or absence of the drugs of interest. Half-times for DV alkalinization (t1/2) were calculated as outlined elsewhere. In all cases, five independent experiments were performed on different days.
# C6^7G8 (PfCRT^7G8) = assay: as above; format: cell-based, Plasmodium falciparum
# Procedure: as §2
# C2^GC03 (PfCRT^3D7) = assay: as above; format: cell-based, Plasmodium falciparum
# Procedure: as §2
# C6^7G8 = assay: P. falciparum drug susceptibility (parasite proliferation, SYBR Safe); format: cell-based; conditions: Plasmodium falciparum, Control, 72 h
# Procedure: (§3) Parasite proliferation was measured in 96-well plates using a fluorescent DNA-intercalating dye and a protocol described in detail previously. Briefly, cell suspensions containing erythrocytes infected with ring-stage parasites (hematocrit and parasitemia of approximately 2% and 1%, respectively) were incubated at 37°C for 72 h. The samples were frozen, thawed, and then processed by the addition of 100 μL (per well) of SYBR Safe DNA Gel Stain (Molecular Probes; 0.2 μL/mL) in a lysis buffer (20 mM Tris, 5 mM EDTA, 0.008% w/v saponin, and 0.08% v/v Triton X-100; pH 7.5). The fluorescence emanating from each well was measured immediately using a Tecan Infinite M1000 PRO microplate reader (excitation 490 nm; emission 520 nm) and the average fluorescence from wells containing the highest concentration of the drug was subtracted from the resulting values. The level of parasite proliferation in the presence of each drug concentration was expressed as a percentage of the proliferation measured in the absence of the drug for which the IC50 was being determined. The IC50s were determined in SigmaPlot by a least-squares fit of the equation y = a/ [1 ([drug]/IC50)c] to the data, where y is the percent parasite proliferation, a is the maximum change in the percent parasite proliferation, and c is a fitted constant. In all cases, five independent experiments were performed (on different days), and within each experiment measurements were averaged from three replicates.
# C4^Dd2 = assay: as above; format: cell-based; conditions: Plasmodium falciparum, Control, 72 h
# Procedure: as §3
# C2^GC03 = assay: as above; format: cell-based; conditions: Plasmodium falciparum, Control, 72 h
# Procedure: as §3
# Dd2 = assay: as above; format: cell-based; conditions: Plasmodium falciparum, DD2, 72 h
# Procedure: as §3
# 3D7 = assay: as above; format: cell-based; conditions: Plasmodium falciparum, Control, 72 h
# Procedure: as §3
# 76I,369F-PfCRT^K1 [4] = target: T1, 76I,369F-PfCRT^K1; assay: Inhibition of PfCRT-mediated [3H]CQ transport in oocytes; format: cell-based; conditions: via 76I,369F-PfCRT^K1 in oocytes
# Procedure: as §1
# (§4) The IC50 values presented in Fig 3A were determined in SigmaPlot by a least-squares fit of the equation y = y min + [(y max—y min)/(1 + ([inhibitor]/IC50)c] to the data, where y is PfCRT-mediated CQ transport, y min and y max are the minimum and maximum values of y, and c is a fitted constant. PfCRT-mediated CQ transport was calculated by subtracting the uptake measured in the control oocytes (oocytes expressing 76K PfCRT^K1) from that in oocytes expressing 76I-PfCRT^K1 or 76I,369F-PfCRT^K1.
# 76I-PfCRT^K1 [5] = target: T2, 76I-PfCRT^K1; assay: as above; format: cell-based; conditions: via 76I-PfCRT^K1 in oocytes
# Procedure: as §1, §4
# T2 sequence (Q9N623 whole entry A220S/K76I/M74I/N326S/N75E/Q271E/R371I): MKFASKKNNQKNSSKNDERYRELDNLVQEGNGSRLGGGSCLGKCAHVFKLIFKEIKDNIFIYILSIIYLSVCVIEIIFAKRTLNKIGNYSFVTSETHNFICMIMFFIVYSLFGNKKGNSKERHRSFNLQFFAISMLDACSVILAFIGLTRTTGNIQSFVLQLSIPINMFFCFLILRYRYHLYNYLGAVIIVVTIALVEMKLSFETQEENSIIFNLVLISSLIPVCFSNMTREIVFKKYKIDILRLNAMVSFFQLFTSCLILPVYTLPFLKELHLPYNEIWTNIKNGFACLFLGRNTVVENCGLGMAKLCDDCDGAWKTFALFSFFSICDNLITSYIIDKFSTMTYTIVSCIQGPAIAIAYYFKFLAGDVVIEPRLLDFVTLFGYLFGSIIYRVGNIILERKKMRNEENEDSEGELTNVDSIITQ
# T1 sequence (Q9N623 whole entry A220S/K76I/M74I/N326S/N75E/Q271E/R371I/V369F): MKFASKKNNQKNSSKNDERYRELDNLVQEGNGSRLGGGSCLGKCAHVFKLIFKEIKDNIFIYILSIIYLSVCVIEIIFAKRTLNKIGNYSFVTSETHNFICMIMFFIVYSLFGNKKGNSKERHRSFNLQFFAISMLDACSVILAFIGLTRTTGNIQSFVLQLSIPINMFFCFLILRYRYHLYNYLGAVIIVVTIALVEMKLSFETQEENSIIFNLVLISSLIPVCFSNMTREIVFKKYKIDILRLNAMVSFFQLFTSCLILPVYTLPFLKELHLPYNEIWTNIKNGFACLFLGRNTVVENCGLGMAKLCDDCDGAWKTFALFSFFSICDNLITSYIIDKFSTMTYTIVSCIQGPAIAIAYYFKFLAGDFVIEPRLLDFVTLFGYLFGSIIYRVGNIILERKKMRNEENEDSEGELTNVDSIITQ
smiles,measurement,setting,value
"CCN(CC)CCCC(C)Nc1ccnc2cc(Cl)ccc12 (stereo not shown) [CQ, chloroquine]",Apparent Vmax,"76I,369F-PfCRT^K1 [1]; transport via 76I,369F-PfCRT^K1 in oocytes, CQ pH 6.0",13.8 pmol per oocyte/h and 13.8 ± 1.3^c (5) pmol per oocyte/h
same,rate of CQ uptake,"noninjected oocytes; pH 5.5, 15 μM unlabeled CQ (S5 Fig)",1.41 ± 0.02 pmol per oocyte/h
same,rate of CQ uptake,"noninjected oocytes; pH 6.0, 15 μM unlabeled CQ (Fig 2A)",0.98 ± 0.13 pmol per oocyte/h
same,Apparent Vmax,"76I-PfCRT^K1 [2]; transport via 76I-PfCRT^K1 in oocytes, CQ pH 6.0, quinine and quinidine pH 5.0","29.3 pmol per oocyte/h and 29.3 ± 7.2^c,f (5) pmol per oocyte/h"
same,Drug susceptibility (In vitro resistance index),[3],1.58 ± 0.02
same,rate of CQ uptake,"PfCRT^K1; oocytes expressing PfCRT^K1, [3H]CQ […], pH 6.0, 15 μM unlabeled CQ (Fig 2A)",6.75 ± 0.94 pmol per oocyte/h
same,Apparent Vmax,"PfCRT^K1; transport via PfCRT^K1 in oocytes, CQ pH 6.0, quinine and quinidine pH 5.0",72 ± 3 (9) pmol per oocyte/h
same,Km,"PfCRT^K1; transport via PfCRT^K1 in oocytes, CQ pH 6.0, quinine and quinidine pH 5.0, 76K-PfCRT^K1 control subtracted, read-out: Apparent Km",282 ± 5 µM
same,effect on rate of DV alkalinization,"C4^Dd2 (PfCRT^Dd2); C4^Dd2 (CQ-resistant), CQ […], concanamycin A 100 nM",increased
same,effect on rate of DV alkalinization,"C6^7G8 (PfCRT^7G8); C6^7G8 (CQ-resistant), CQ […], concanamycin A 100 nM",increased
same,effect on rate of DV alkalinization,"C2^GC03 (PfCRT^3D7); C2^GC03 (CQ-sensitive), CQ […], concanamycin A 100 nM",without effect
same,IC50,C6^7G8,0.087 ± 0.0021 µM
same,IC50,C4^Dd2,0.149 ± 0.0046 µM
same,IC50,C2^GC03,0.027 ± 0.0016 µM
same,IC50,Dd2,0.151 ± 0.0048 µM
same,IC50,3D7,0.025 ± 0.0011 µM
NC12CC3CC(CC(C3)C1)C2 [amantadine],amantadine transport activity,"76I,369F-PfCRT^K1 [1]; oocytes expressing 76I,369F-PfCRT^K1, pH 5.0, 50 μM unlabeled amantadine",very low (but statistically significant) level
same,rate of amantadine uptake,"noninjected oocytes; [3H]amantadine 0.146 μM, pH 5.0, 50 μM unlabeled amantadine",5.4 ± 0.9 nmol per oocyte/h
same,[3H]amantadine accumulation relative to noninjected oocytes,"76I-PfCRT^K1 [2]; oocytes expressing 76I-PfCRT^K1, pH 5.0, 50 μM unlabeled amantadine",marked increase
same,rate of amantadine uptake,"PfCRT^K1; PfCRT^K1-expressing oocytes, [3H]amantadine 0.146 μM, pH 5.0, 50 μM unlabeled amantadine",12 ± 2.8 nmol per oocyte/h
same,[3H]amantadine accumulation relative to noninjected oocytes,"PfCRT^K1; oocytes expressing PfCRT^K1, pH 5.0, 50 μM unlabeled amantadine",marked increase
same,substrate of PfCRT in situ (rate of DV alkalinization),"C4^Dd2 (PfCRT^Dd2); C4^Dd2, PfCRT^Dd2, amantadine 10 μM",is a substrate
same,substrate of PfCRT in situ (rate of DV alkalinization),"C6^7G8 (PfCRT^7G8); C6^7G8, PfCRT^7G8, amantadine 10 μM",is a substrate
same,substrate of PfCRT in situ (rate of DV alkalinization),"C2^GC03 (PfCRT^3D7); C2^GC03, wild-type PfCRT (PfCRT^3D7), amantadine 10 μM",not of wild-type PfCRT
same,IC50,C6^7G8,43 ± 2.9 µM
same,IC50,C4^Dd2,8.4 ± 0.06 µM
same,IC50,C2^GC03,335 ± 9.5 µM
same,IC50,Dd2,11 ± 0.1 µM
same,IC50,3D7,344 ± 8.9 µM
same,IC50,"76I,369F-PfCRT^K1 [4]",174 ± 26 µM
same,IC50,76I-PfCRT^K1 [5],186 ± 16 µM
